Data taken from ChEMBL document CHEMBL1201862, “PubChem BioAssay data set” (2004).
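Assay format: 96-well plates, 48-hour exposure. GI50 marks 50% less growth.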 Activity calls are given as the source filed them. No stated cut-off is given here; in the data, active = GI50 up to about 1.1 µM and inactive = higher.

Assays:
Test in all cases: NCI anticancer screen, dose series, 48 h
A498 = system: A498
LOX IMVI = system: LOX IMVI
MDA-N = system: MDA-N
MDA-MB-435 = system: MDA-MB-435
COLO 205 = system: COLO 205
SK-MEL-2 = system: SK-MEL-2
NCI-H226 = system: NCI-H226
SK-OV-3 = system: SK-OV-3
UACC-62 = system: UACC-62
OVCAR-5 = system: OVCAR-5
786-0 = system: 786-0
SF-268 = system: SF-268
SNB-19 = system: SNB-19
HT-29 = system: HT-29
SN12C = system: SN12C
U-251 = system: U-251
SF-295 = system: SF-295
HOP-92 = system: HOP-92
OVCAR-8 = system: OVCAR-8
OVCAR-4 = system: OVCAR-4
SNB-75 = system: SNB-75
MCF7 = system: MCF7
HCT-116 = system: HCT-116
M14 = system: M14
SK-MEL-28 = system: SK-MEL-28
EKVX = system: EKVX
MOLT-4 = system: MOLT-4
NCI-H522 = system: NCI-H522
DU-145 = system: DU-145
PC-3 = system: PC-3
RPMI-8226 = system: RPMI-8226
KM12 = system: KM12
K562 = system: K562
TK-10 = system: TK-10
SK-MEL-5 = system: SK-MEL-5
MDA-MB-231 = system: MDA-MB-231
UO-31 = system: UO-31
ACHN = system: ACHN
OVCAR-3 = system: OVCAR-3
NCI-H23 = system: NCI-H23
A549 = system: A549
HCT-15 = system: HCT-15
Hs-578T = system: Hs-578T
IGROV-1 = system: IGROV-1
HL-60 = system: HL-60
HOP-62 = system: HOP-62
SR = system: SR
NCI/ADR-RES = system: NCI/ADR-RES
Malme-3M = system: Malme-3M
SW-620 = system: SW-620
RXF 393 = system: RXF 393
CAKI-1 = system: CAKI-1
T47D = system: T47D
NCI-H460 = system: NCI-H460
SF-539 = system: SF-539
CCRF-CEM = system: CCRF-CEM
HCC 2998 = system: HCC 2998
UACC-257 = system: UACC-257

SMILES: NC(=O)CCC(NC(=O)c1cccc2c(=O)c3ccccc3[nH]c12)C(=O)O (stereo not drawn)
- GI50 (A498): > 100 µM (inactive)
- GI50 (LOX IMVI): > 100 µM (inactive)
- GI50 (MDA-N): > 100 µM (inactive)
- GI50 (MDA-MB-435): > 100 µM (inactive)
- GI50 (COLO 205): > 100 µM (inactive)
- GI50 (SK-MEL-2): > 100 µM (inactive)
- GI50 (NCI-H226): > 100 µM (inactive)
- GI50 (SK-OV-3): > 100 µM (inactive)
- GI50 (UACC-62): > 100 µM (inactive)
- GI50 (OVCAR-5): > 100 µM (inactive)
- GI50 (786-0): > 100 µM (inactive)
- GI50 (SF-268): > 100 µM (inactive)
- GI50 (SNB-19): > 100 µM (inactive)
- GI50 (HT-29): > 100 µM (inactive)
- GI50 (SN12C): > 100 µM (inactive)
- GI50 (U-251): > 100 µM (inactive)
- GI50 (SF-295): > 100 µM (inactive)
- GI50 (HOP-92): 77.3 µM (inactive)
- GI50 (OVCAR-8): > 100 µM (inactive)
- GI50 (OVCAR-4): > 100 µM (inactive)
- GI50 (SNB-75): > 100 µM (inactive)
- GI50 (MCF7): > 100 µM (inactive)
- GI50 (HCT-116): > 100 µM (inactive)
- GI50 (M14): > 100 µM (inactive)
- GI50 (SK-MEL-28): > 100 µM (inactive)
- GI50 (EKVX): > 100 µM (inactive)
- GI50 (MOLT-4): > 100 µM (inactive)
- GI50 (NCI-H522): > 100 µM (inactive)
- GI50 (DU-145): > 100 µM (inactive)
- GI50 (PC-3): > 100 µM (inactive)
- GI50 (RPMI-8226): > 100 µM (inactive)
- GI50 (KM12): > 100 µM (inactive)
- GI50 (K562): > 100 µM (inactive)
- GI50 (TK-10): > 100 µM (inactive)
- GI50 (SK-MEL-5): > 100 µM (inactive)
- GI50 (MDA-MB-231): > 100 µM (inactive)
- GI50 (UO-31): > 100 µM (inactive)
- GI50 (ACHN): > 100 µM (inactive)
- GI50 (OVCAR-3): > 100 µM (inactive)
- GI50 (NCI-H23): > 100 µM (inactive)
- GI50 (A549): > 100 µM (inactive)
- GI50 (HCT-15): > 100 µM
- GI50 (Hs-578T): > 100 µM (inactive)
- GI50 (IGROV-1): > 100 µM (inactive)
- GI50 (HL-60): > 100 µM (inactive)
- GI50 (HOP-62): > 100 µM (inactive)
- GI50 (SR): > 100 µM (inactive)
- GI50 (NCI/ADR-RES): > 100 µM (inactive)
- GI50 (Malme-3M): > 100 µM (inactive)
- GI50 (SW-620): > 100 µM (inactive)

SMILES: C[C@@H]1CC[C@]2(C)C3(C)CC[C@]2(OC3=O)[C@@]12CC(c1ccoc1)OC2=O (stereo partly drawn)
- GI50 (A498): > 100 µM (inactive)
- GI50 (LOX IMVI): 20.3 µM (inactive)
- GI50 (MDA-N): 34.4 µM (inactive)
- GI50 (RXF 393): 24.8 µM (inactive)
- GI50 (MDA-MB-435): 25.3 µM (inactive)
- GI50 (COLO 205): 19.3 µM (inactive)
- GI50 (SK-MEL-2): 58.6 µM (inactive)
- GI50 (NCI-H226): > 100 µM (inactive)
- GI50 (SK-OV-3): > 100 µM (inactive)
- GI50 (UACC-62): 61.4 µM (inactive)
- GI50 (CAKI-1): 34.3 µM (inactive)
- GI50 (OVCAR-5): 30.8 µM (inactive)
- GI50 (786-0): 20.5 µM (inactive)
- GI50 (SF-268): 37.2 µM (inactive)
- GI50 (SNB-19): > 100 µM (inactive)
- GI50 (HT-29): 54.7 µM (inactive)
- GI50 (SN12C): 33.8 µM (inactive)
- GI50 (U-251): 44.5 µM (inactive)
- GI50 (SF-295): > 100 µM (inactive)
- GI50 (HOP-92): 32.8 µM (inactive)
- GI50 (T47D): > 100 µM (inactive)
- GI50 (OVCAR-4): 20.7 µM (inactive)
- GI50 (MCF7): 61 µM (inactive)
- GI50 (HCT-116): 17.5 µM (inactive)
- GI50 (M14): 25.1 µM (inactive)
- GI50 (SK-MEL-28): 26.7 µM (inactive)
- GI50 (EKVX): 72.3 µM (inactive)
- GI50 (MOLT-4): 31 µM (inactive)
- GI50 (NCI-H522): 2.15 µM (inactive)
- GI50 (DU-145): > 100 µM (inactive)
- GI50 (PC-3): 40.6 µM (inactive)
- GI50 (RPMI-8226): 38.2 µM (inactive)
- GI50 (KM12): > 100 µM (inactive)
- GI50 (K562): 34 µM (inactive)
- GI50 (NCI-H460): 86.5 µM (inactive)
- GI50 (TK-10): 39 µM (inactive)
- GI50 (SK-MEL-5): 62.5 µM (inactive)
- GI50 (UO-31): 28 µM (inactive)
- GI50 (ACHN): 22.4 µM (inactive)
- GI50 (OVCAR-3): 26.2 µM (inactive)
- GI50 (NCI-H23): 29.6 µM (inactive)
- GI50 (SF-539): 30.5 µM (inactive)
- GI50 (A549): > 100 µM (inactive)
- GI50 (HCT-15): 31.4 µM
- GI50 (Hs-578T): 54.2 µM (inactive)
- GI50 (IGROV-1): 26.9 µM (inactive)
- GI50 (CCRF-CEM): 22.8 µM (inactive)
- GI50 (HL-60): 21.6 µM (inactive)
- GI50 (HOP-62): > 100 µM (inactive)
- GI50 (SR): 34.8 µM (inactive)
- GI50 (NCI/ADR-RES): 49.3 µM (inactive)
- GI50 (HCC 2998): > 100 µM (inactive)
- GI50 (Malme-3M): 21.1 µM (inactive)
- GI50 (SW-620): 26.9 µM (inactive)

SMILES: O=C1c2c(O)ccc(O)c2C(=O)c2c(NCCNCCO)ccc(NCCNCCO)c21 [MITOXANTRONE]
- GI50 (A498): 0.112 µM (active)
- GI50 (MDA-MB-435): 0.259 µM (active)
- GI50 (HOP-92): 0.0355 µM (active)
- GI50 (HCT-116): 0.0373 µM (active)
- GI50 (K562): 0.0741 µM (active)
- GI50 (UACC-257): 0.995 µM (active)
- GI50 (SK-MEL-5): 0.0719 µM (active)
- GI50 (SF-539): < 0.01 µM (active)
- GI50 (A549): < 0.01 µM (active)
